How the values were obtained:
solubility in water = assay type: physicochemical
Procedure: The all-trans isomer of retinyliden tauret (i.e., all-trans-3,7-dimethyl-9-(2,6,6-trimehyl-1-cyclohexen-1-yl)-2,4,6,8-nonatetraen-1-imido-(N-sulfonic acid) prepared in this example has the following characterization: a) Absorbency Max […]., b) Extinction Coefficient at […] is 40200, c) upon protonation the absorbency Max shifts to 444 um, d) the Extinction Coefficient at 444 um is 40050 e) Melting Point is 115 C., -116° C. and soluability in water is 200 mg/ml.

frog retinas = details: in vitro; cited from earlier work

`CC1=C(/C=C/C(C)=C/C=C/C(C)=C/C=NCCS(=O)(=O)O)C(C)(C)CCC1` (single isomer, unassigned) [all-trans isomer of retinyliden tauret, all-trans-3,7-dimethyl-9-(2,6,6-trimehyl-1-cyclohexen-1-yl)-2,4,6,8-nonatetraen-1-imido-(N-ethanesulfonic acid)] showed a soluability in water (solubility in water) of 200 mg/mL.

In the case of `CC(C=CC1=C(C)CCCC1(C)C)=CC=CC(C)=CC=NCCS(=O)(=O)O` [retinyliden tauret, 3,7-dimethyl-9-(2,6,6-trimehyl-1-cyclohexen-1-yl)-2,4,6,8-nonatetraen-1-imido-(N-ethanesulfonic acid)], the photoprotective effects (frog retinas) is given as “some photoprotective effects”.
